Source: article PMC10016038, “Enhanced Endosomal Signaling and Desensitization of GLP-1R vs GIPR in Pancreatic Beta Cells” (Endocrinology, 2023)
“Also recorded” adds a separate entry of the source.

How the values were obtained:
INS-1 832/3 WT cells = assay: Insulin secretion assay, INS-1 832/3 WT cells; assay type: cell-based, rat; settings: 100 nM, 11 mM glucose; WT n = 3
Method: (§1) At the end of the treatments, the supernatant containing the secreted insulin was collected, centrifuged at 1000g for 3 minutes, and transferred to a fresh tube. To determine total insulin content, cells were lysed using KRBH buffer + 1% w/v BSA + 1% v/v Triton X-100 (Sigma). The lysates were sonicated 3 × 10 seconds in a water bath sonicator and centrifuged at 10 000g for 10 minutes, and the supernatants collected. The samples were stored at −20 °C until the insulin concentration was determined using an Insulin Ultra-Sensitive HTRF Assay kit (62IN2PEG, Cisbio, Codolet, France) according to the manufacturer's instructions.
(§2) Figure 7. Functional analysis of GLP-1R vs GIPR signaling in beta cells. […] Data are mean ± SEM, compared by paired t tests; *P < .05; ns, nonsignificant.

SNAP-GIPR = assay: Nb37 bystander NanoBiT, endosome (Endofin), GIPR; assay type: cell-based, human; settings: Endofin-LgBiT, n = 4
Source text: (§3) The Nb37 assay constructs were kindly provided by Prof. Asuka Inoue, Tohoku University, Japan. Nb37 (gene synthesized by GenScript with codon optimization) was C-terminally fused to SmBiT with a 15 amino acid flexible linker ([…]), and the resulting construct referred to as Nb37-SmBiT. The C-terminal KRAS CAAX motif ([…]) was N-terminally fused with LgBiT (LgBiT-CAAX). The Endofin FYVE domain (amino acid region Gln739-Lys806) was C-terminally fused with LgBiT (Endofin-LgBiT). Gαs (human, short isoform), Gβ1 (human), Gγ2 (human), and RIC8B (human, isoform 2) plasmids were inserted into pcDNA3.1 or pCAGGS expression plasmid vectors. INS-1 832/3 GLP-1R KO or GIPR KO cells were seeded in 6-well plates and co-transfected with 0.1 μg SNAP-GLP-1R or SNAP-GIPR, 0.5 μg Gαs, Gβ1, and Gγ2, 0.1 μg RIC8B, 0.1 μg CAAX-LgBiT or 0.5 μg Endofin-LgBiT with 0.1 μg or 0.5 μg Nb37-SmBiT, respectively, with 0.8 µg pcDNA3.1 added to the former to equalize DNA content.
(§4) All NanoBiT and NanoBRET readings were obtained in a Flexstation 3 plate reader. […] Readings were normalized to well baseline and then to average vehicle-induced signal to establish the agonist-induced effect. AUCs from response curves were calculated for each agonist concentration and fitted to four-parameter curves using Prism 9 (GraphPad). […]

[1] = tested on: INS-1 832/3 GIPR KO cells; assay: Insulin secretion assay, GIPR KO cells; assay type: cell-based, rat; settings: 100 nM, 11 mM glucose; n = 4
Method: as §1, §2

SNAP-tagged human GLP-1R = SNAP-tagged human GLP-1R (Homo sapiens, UniProt P43220); assay: DERET internalization assay, INS-1 832/3 SNAP-GLP-1R cells; assay type: cell-based; settings: non-cognate agonist GIP
SNAP-tagged human GLP-1R, sequence (P43220 24-463): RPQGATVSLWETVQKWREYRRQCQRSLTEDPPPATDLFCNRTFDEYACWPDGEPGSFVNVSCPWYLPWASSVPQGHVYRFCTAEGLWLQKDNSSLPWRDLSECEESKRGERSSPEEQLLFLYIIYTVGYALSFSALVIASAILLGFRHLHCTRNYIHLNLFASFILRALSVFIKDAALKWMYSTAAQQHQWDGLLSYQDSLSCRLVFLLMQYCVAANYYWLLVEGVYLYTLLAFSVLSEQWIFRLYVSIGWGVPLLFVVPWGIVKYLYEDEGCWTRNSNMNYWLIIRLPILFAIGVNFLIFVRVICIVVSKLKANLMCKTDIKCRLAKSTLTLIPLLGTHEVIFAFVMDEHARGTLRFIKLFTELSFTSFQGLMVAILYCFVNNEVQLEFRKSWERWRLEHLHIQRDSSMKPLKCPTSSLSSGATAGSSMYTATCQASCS

GIPR-NanoLuc = assay: KRAS-Venus bystander NanoBRET (plasma membrane), GIPR; assay type: cell-based; settings: n = 5
Source text: GLP-1R-NanoLuc was generated in house by polymerase chain reaction (PCR) cloning of the NanoLuciferase sequence from pcDNA3.1-ccdB-NanoLuc (a gift from Prof. Mikko Taipale; Addgene plasmid # 87067) onto the C-terminus end of the SNAP-GLP-1R vector (CisBio), followed by site-directed mutagenesis of the GLP-1R stop codon. GIPR-NanoLuc was subsequently cloned in house by exchanging the GLP-1R for the GIPR in the GLP-1R-NanoLuc construct. KRAS- and Rab5-Venus plasmids were a gift from Prof. Kevin Pfleger, University of Western Australia. The INS-1 832/3 GLP-1R KO and GIPR KO cells were seeded in 12-well plates and co-transfected with 0.2 µg KRAS-Venus and 0.1 µg GLP-1R- or GIPR-NanoLuc, respectively, or 0.5 µg Rab5-Venus and 0.1 µg GLP-1R- or GIPR-NanoLuc, respectively.
All NanoBiT and NanoBRET readings were obtained in a Flexstation 3 plate reader. Briefly, 24 hours after transfection, cells were detached, resuspended in NanoGlo Live Cell Reagent (Promega) with furimazine (1:20 dilution) and seeded into white 96-well half-area plates. […] Readings were normalized to well baseline and then to average vehicle-induced signal to establish the agonist-induced effect. AUCs from response curves were calculated for each agonist concentration and fitted to four-parameter curves using Prism 9 (GraphPad).
Figure 2. Endosomal vs plasma membrane localization of GLP-1R compared with GIPR in beta cells. […] Data are mean ± SEM, compared by paired t tests or two-way ANOVA with Sidak's test; *P < .05.

SNAP-tagged human GIPR [2] = assay: Colocalization with Rab5-Venus, SNAP-GIPR; assay type: cell-based; settings: 100 nM GIP
Source text: To determine the intracellular destination of internalized GLP-1Rs/GIPRs more precisely, we performed concentration response bystander NanoBRET assays using C-terminal NanoLuc-fused SNAP-tagged GLP-1R vs GIPR and either KRAS-Venus (plasma membrane) or Rab5-Venus (early endosome) co-expressed transiently in INS-1 832/3 cells (Fig. 2).

SNAP-tagged human GIPR [3] = assay: DERET internalization assay, INS-1 832/3 SNAP-GIPR cells; assay type: cell-based; settings: non-cognate agonist GLP-1, or both agonists combined
Method: The diffusion-enhanced resonance energy transfer (DERET) assay was performed as previously described ([21]). The INS-1 832/3 SNAP-GLP-1R or SNAP-GIPR cells were labeled in suspension with Lumi4-Tb (40 nM) for 30 minutes in complete media. After washing, cells were resuspended in HBSS containing 24 µM fluorescein and dispensed into 96-well white plates. A baseline read was serially recorded over 5 minutes using a Flexstation 3 instrument at 37 °C in time-resolved fluorescence resonance energy transfer (TR-FRET) mode using the following settings: λex 340 nm, λem 520 and 620 nm, auto-cutoff, delay 400 µs, integration time 1500 µs. Ligands were then added, after which signal was repeatedly recorded for 30 minutes. Fluorescence signals were expressed ratiometrically after first subtracting signal from wells containing 24 µM fluorescein but no cells. Internalization was quantified as area under the curve (AUC) relative to individual well baseline.
Note that surface expression levels of SNAP-GLP-1R and SNAP-GIPR were similar within these 2 cell models (Supplemental Fig. 1A) ([32]).

SNAP-GLP-1R = assay: Nb37 bystander NanoBiT, plasma membrane (CAAX), GLP-1R; assay type: cell-based, human; settings: 30-minute AUC, n = 4
Source text: as §3, §4

Substance	Insulin secretion, GIP compared with GLP-1 (INS-1 832/3 WT cells)	GIPR endosomal activity, Emax response vs GLP-1R (SNAP-GIPR)	GIPR potency for endosomal signaling vs GLP-1R (SNAP-GIPR)	Insulin secretion response in GIPR KO cells [1]	GLP-1R internalization (SNAP-tagged human GLP-1R)	Plasma membrane retention of GIPR compared with GLP-1R (GIPR-NanoLuc; INS-1 832/3 KO cells)	Maximal internalization response (Emax), GIPR vs GLP-1R (GIPR-NanoLuc)	Potency (logEC50), GIPR vs GLP-1R (GIPR-NanoLuc)	Localization of the fraction of internalized GIPRs (SNAP-tagged human GIPR [2])	SNAP-GIPR localization (SNAP-tagged human GIPR [2])	GIPR internalization (SNAP-tagged human GIPR [3])	Recruitment of Nb37 to active GLP-1Rs vs GIPRs within the plasma membrane (SNAP-GLP-1R)
GIP(1-42)	nonsignificant tendency toward improvement; also recorded: tendency toward increased	profoundly reduced	increased potency	abolished	negligible	increased propensity for plasma membrane retention	reduced maximal internalization responses	no changes in potency	also localized to Rab5-Venus-positive endosomes	a sizable amount of SNAP-GIPR was still present at the plasma membrane		
GLP-1(7-36)NH2											negligible	no significant differences
